Reference: PubChem BioAssay AID1259407 (Chemical Carcinogenesis Research Information System (CCRIS), 2018)
Activity calls are given as the source filed them. The rule behind the calls is not given here.

Test system: CCRIS mutagenicity, Ames/micronucleus/aberration tests
Assay: CCRIS mutagenicity studies
[1] = Test System: AMES SALMONELLA TYPHIMURIUM, Strain/Indicator: TA98, Metabolic Activation: NONE, Method: STANDARD PLATE
[2] = Test System: AMES SALMONELLA TYPHIMURIUM, Strain/Indicator: TA100, Metabolic Activation: NONE, Method: STANDARD PLATE

Measured: mutagenic call

COC(=O)[C@H]1[C@H]2C[C@@H]3c4[nH]c5cc(OC)ccc5c4CCN3C[C@H]2C[C@@H](OC(=O)c2cc(OC)c(OC)c(OC)c2)[C@@H]1OC
inactive: End Point: IN VITRO CHROMOSOMAL ABERRATIONS, Test System: CHO CELLS, Metabolic Activation: NONE inactive; negative | Test System: AMES SALMONELLA TYPHIMURIUM, Strain/Indicator: TA97, Metabolic Activation: HAMSTER, LIVER, S-9, AROCLOR 1254 (10 OR 30%), Method: PREINCUBATION inactive; negative | Test System: AMES SALMONELLA TYPHIMURIUM, Strain/Indicator: TA97, Metabolic Activation: NONE, Method: PREINCUBATION inactive; negative | Test System: AMES SALMONELLA TYPHIMURIUM, Strain/Indicator: TA97, Metabolic Activation: RAT, LIVER, S-9, AROCLOR 1254 (10 OR 30%), Method: PREINCUBATION inactive; negative | Test System: AMES SALMONELLA TYPHIMURIUM, Strain/Indicator: TA98, Metabolic Activation: HAMSTER, LIVER, S-9, AROCLOR 1254 (10 OR 30%), Method: PREINCUBATION inactive; negative | Test System: AMES SALMONELLA TYPHIMURIUM, Strain/Indicator: TA98, Metabolic Activation: NONE, Method: PREINCUBATION inactive; negative | [1] inactive; negative | Test System: AMES SALMONELLA TYPHIMURIUM, Strain/Indicator: TA98, Metabolic Activation: RAT, LIVER, S-9, AROCLOR 1254 (10 OR 30%), Method: PREINCUBATION inactive; negative | Test System: AMES SALMONELLA TYPHIMURIUM, Strain/Indicator: TA98, Metabolic Activation: RAT, LIVER, S-9, AROCLOR 1254, Method: STANDARD PLATE inactive; negative | Test System: AMES SALMONELLA TYPHIMURIUM, Strain/Indicator: TA100, Metabolic Activation: HAMSTER, LIVER, S-9, AROCLOR 1254 (10 OR 30%), Method: PREINCUBATION inactive; negative | Test System: AMES SALMONELLA TYPHIMURIUM, Strain/Indicator: TA100, Metabolic Activation: NONE, Method: PREINCUBATION inactive; negative | [2] inactive; negative | Test System: AMES SALMONELLA TYPHIMURIUM, Strain/Indicator: TA100, Metabolic Activation: RAT, LIVER, S-9, AROCLOR 1254 (10%), Method: PREINCUBATION inactive; negative | Test System: AMES SALMONELLA TYPHIMURIUM, Strain/Indicator: TA100, Metabolic Activation: RAT, LIVER, S-9, AROCLOR 1254 (30%), Method: PREINCUBATION inactive; negative | Test System: AMES SALMONELLA TYPHIMURIUM, Strain/Indicator: TA100, Metabolic Activation: RAT, LIVER, S-9, AROCLOR 1254, Method: STANDARD PLATE inactive; negative | Test System: AMES SALMONELLA TYPHIMURIUM, Strain/Indicator: TA1535, Metabolic Activation: HAMSTER, LIVER, S-9, AROCLOR 1254 (10 OR 30%), Method: PREINCUBATION inactive; negative | Test System: AMES SALMONELLA TYPHIMURIUM, Strain/Indicator: TA1535, Metabolic Activation: NONE, Method: PREINCUBATION inactive; negative | Test System: AMES SALMONELLA TYPHIMURIUM, Strain/Indicator: TA1535, Metabolic Activation: NONE, Method: STANDARD PLATE inactive; negative | Test System: AMES SALMONELLA TYPHIMURIUM, Strain/Indicator: TA1535, Metabolic Activation: RAT, LIVER, S-9, AROCLOR 1254 (10 OR 30%), Method: PREINCUBATION inactive; negative | Test System: AMES SALMONELLA TYPHIMURIUM, Strain/Indicator: TA1535, Metabolic Activation: RAT, LIVER, S-9, AROCLOR 1254, Method: STANDARD PLATE inactive; negative | Test System: AMES SALMONELLA TYPHIMURIUM, Strain/Indicator: TA1537, Metabolic Activation: NONE, Method: STANDARD PLATE inactive; negative | Test System: AMES SALMONELLA TYPHIMURIUM, Strain/Indicator: TA1537, Metabolic Activation: RAT, LIVER, S-9, AROCLOR 1254, Method: STANDARD PLATE inactive; negative | Test System: E. COLI, Strain/Indicator: WP2 UVRA, Metabolic Activation: HAMSTER, LIVER, S-9, AROCLOR 1254, Method: STANDARD PLATE inactive; negative | Test System: E. COLI, Strain/Indicator: WP2 UVRA, Metabolic Activation: HAMSTER, LIVER, S-9, Method: STANDARD PLATE inactive; negative | Test System: E. COLI, Strain/Indicator: WP2 UVRA, Metabolic Activation: MOUSE, LIVER, S-9, AROCLOR 1254, Method: STANDARD PLATE inactive; negative | Test System: E. COLI, Strain/Indicator: WP2 UVRA, Metabolic Activation: MOUSE, LIVER, S-9, Method: STANDARD PLATE inactive; negative | Test System: E. COLI, Strain/Indicator: WP2 UVRA, Metabolic Activation: NONE, Method: STANDARD PLATE inactive; negative | Test System: E. COLI, Strain/Indicator: WP2 UVRA, Metabolic Activation: RAT, LIVER, S-9, AROCLOR 1254, Method: STANDARD PLATE inactive; negative | Test System: E. COLI, Strain/Indicator: WP2 UVRA, Metabolic Activation: RAT, LIVER, S-9, Method: STANDARD PLATE inactive; negative | Test System: UDS RAT HEPATOCYTES, Strain/Indicator: BROMODEOXYURIDINE INCORP, Metabolic Activation: NONE, Method: FLOW CYTOMETRIC ANALYSIS inactive; negative

Nc1ccc(N(c2ccc3ccccc3c2)c2ccc3ccccc3c2)cc1
inactive: [1] inactive; negative | Test System: AMES SALMONELLA TYPHIMURIUM, Strain/Indicator: TA98, Metabolic Activation: S-9, Method: STANDARD PLATE inactive; negative | [2] inactive; negative | Test System: AMES SALMONELLA TYPHIMURIUM, Strain/Indicator: TA100, Metabolic Activation: S-9, Method: STANDARD PLATE inactive; negative
